Active and inactive are the calls of the source. The rule behind the calls is not given here.
Key:
Rattus norvegicus [1] = assay: Drug discrimination effect in CD Albino rat assessed as percent of rat choosing cocaine lever at 17 mg/kg, ip; format: functional; conditions: route intraperitoneal
Mus musculus [2] = assay: Activity in CD1 mouse assessed as straub tail at 100 mg/kg, ip after 4 hrs; format: functional, organism-based; set-up: dose 100 mg/kg
Mus musculus [3] = assay: Locomotor activity in CD1 mouse assessed as stimulation at 1 mg/kg, ip after 4 hrs relative to control; format: functional; conditions: route intraperitoneal
Mus musculus [4] = assay: Locomotor activity in CD1 mouse assessed as stimulation at 30 mg/kg, ip after 1 hr relative to control; format: functional; conditions: route intraperitoneal
Rattus norvegicus [5] = assay: Drug discrimination effect in CD Albino rat assessed as percent of rat choosing cocaine lever at 3 mg/kg, ip; format: functional; conditions: route intraperitoneal
Mus musculus [6] = assay: Locomotor activity in CD1 mouse assessed as stimulation at 10 mg/kg, ip after 2 hrs relative to control; format: functional; conditions: route intraperitoneal
Mus musculus [7] = assay: Locomotor activity in CD1 mouse assessed as stimulation at 10 mg/kg, ip after 4 hrs relative to control; format: functional; conditions: route intraperitoneal
Mus musculus [8] = assay: Locomotor activity in CD1 mouse assessed as stimulation at 30 mg/kg, ip after 3 hrs relative to control; format: functional; conditions: route intraperitoneal
Mus musculus [9] = assay: Activity in CD1 mouse assessed as slight or intermittent stereotypy at 10 mg/kg, ip after 4 hrs; format: functional, organism-based; set-up: dose 10 mg/kg
Mus musculus [10] = assay: Locomotor activity in ip dosed CD1 mouse after 1 hr relative to cocaine; format: functional
Mus musculus [11] = assay: Locomotor activity in CD1 mouse assessed as stimulation at 3 mg/kg, ip after 1 hr relative to control; format: functional; conditions: route intraperitoneal
Mus musculus [12] = assay: Locomotor activity in CD1 mouse assessed as stimulation at 10 mg/kg, ip after 1 hr relative to control; format: functional; conditions: route intraperitoneal
Mus musculus [13] = assay: Activity in CD1 mouse assessed as stereotypy at 100 mg/kg, ip after 4 hrs; format: functional, organism-based; set-up: dose 100 mg/kg
Mus musculus [14] = assay: Locomotor activity in CD1 mouse assessed as stimulation at 30 mg/kg, ip after 2 hrs relative to control; format: functional; conditions: route intraperitoneal
Mus musculus [15] = assay: Locomotor activity in CD1 mouse assessed as stimulation at 1 mg/kg, ip after 3 hrs relative to control; format: functional; conditions: route intraperitoneal
Mus musculus [16] = assay: Locomotor activity in CD1 mouse assessed as stimulation at 3 mg/kg, ip after 4 hrs relative to control; format: functional; conditions: route intraperitoneal
Mus musculus [17] = assay: Locomotor activity in CD1 mouse assessed as stimulation at 1 mg/kg, ip after 2 hrs relative to control; format: functional; conditions: route intraperitoneal
Mus musculus [18] = assay: Activity in CD1 mouse assessed as tremor at 100 mg/kg, ip after 4 hrs; format: functional, organism-based; set-up: dose 100 mg/kg
[19] = target: Sodium-dependent noradrenaline transporter (Homo sapiens, UniProt P23975); assay: Displacement of [3H]nisoxetine from NET
Sodium-dependent noradrenaline transporter, sequence (P23975 whole entry): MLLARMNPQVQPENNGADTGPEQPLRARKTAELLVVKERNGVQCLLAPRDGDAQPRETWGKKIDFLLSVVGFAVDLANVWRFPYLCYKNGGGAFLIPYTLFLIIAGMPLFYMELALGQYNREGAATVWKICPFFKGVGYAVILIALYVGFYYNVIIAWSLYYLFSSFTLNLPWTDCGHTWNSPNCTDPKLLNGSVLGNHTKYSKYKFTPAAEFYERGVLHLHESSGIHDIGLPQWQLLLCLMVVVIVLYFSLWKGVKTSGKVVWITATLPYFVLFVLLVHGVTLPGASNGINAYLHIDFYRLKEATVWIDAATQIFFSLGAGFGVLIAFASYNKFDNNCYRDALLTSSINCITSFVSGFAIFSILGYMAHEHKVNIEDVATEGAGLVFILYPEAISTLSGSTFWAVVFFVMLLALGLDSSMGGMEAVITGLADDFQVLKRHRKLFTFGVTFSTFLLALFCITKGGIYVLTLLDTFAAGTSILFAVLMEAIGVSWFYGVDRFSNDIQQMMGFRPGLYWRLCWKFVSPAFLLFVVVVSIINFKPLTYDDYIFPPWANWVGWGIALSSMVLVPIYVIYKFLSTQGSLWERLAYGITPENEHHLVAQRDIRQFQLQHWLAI

Mus musculus [20] = assay: Locomotor activity in CD1 mouse assessed as stimulation at 30 mg/kg, ip after 4 hrs relative to control; format: functional; conditions: route intraperitoneal
Mus musculus [21] = assay: Locomotor activity in CD1 mouse assessed as stimulation at 3 mg/kg, ip after 3 hrs relative to control; format: functional; conditions: route intraperitoneal
Mus musculus [22] = assay: Locomotor activity in CD1 mouse assessed as stimulation at 3 mg/kg, ip after 2 hrs relative to control; format: functional; conditions: route intraperitoneal
Mus musculus [23] = assay: Activity in CD1 mouse assessed as death at 100 mg/kg, ip after 4 hrs; format: functional, organism-based; set-up: dose 100 mg/kg
Rattus norvegicus [24] = assay: Cocaine discrimination in ip dosed CD Albino rat; format: functional
[25] = target: Sodium-dependent serotonin transporter (Homo sapiens, UniProt P31645)
Sodium-dependent serotonin transporter, sequence (P31645 whole entry): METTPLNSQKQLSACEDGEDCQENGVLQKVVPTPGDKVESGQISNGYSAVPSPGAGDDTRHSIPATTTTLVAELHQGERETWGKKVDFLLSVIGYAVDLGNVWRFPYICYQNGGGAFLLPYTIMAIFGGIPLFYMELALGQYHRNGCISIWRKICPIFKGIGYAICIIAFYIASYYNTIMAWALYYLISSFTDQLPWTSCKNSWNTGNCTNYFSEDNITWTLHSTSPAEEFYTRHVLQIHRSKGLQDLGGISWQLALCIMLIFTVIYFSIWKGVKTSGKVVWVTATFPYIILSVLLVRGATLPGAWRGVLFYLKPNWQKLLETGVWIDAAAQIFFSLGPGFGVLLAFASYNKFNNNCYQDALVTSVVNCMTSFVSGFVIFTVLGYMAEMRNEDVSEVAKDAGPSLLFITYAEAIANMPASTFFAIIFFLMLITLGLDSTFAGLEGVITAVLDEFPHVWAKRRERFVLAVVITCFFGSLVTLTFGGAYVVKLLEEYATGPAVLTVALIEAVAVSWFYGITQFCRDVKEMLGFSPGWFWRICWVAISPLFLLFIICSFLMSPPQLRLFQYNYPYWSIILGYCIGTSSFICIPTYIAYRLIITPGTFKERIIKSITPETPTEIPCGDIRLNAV
Description: Displacement of [3H]paroxetine from 5HTT

Mus musculus [26] = assay: Locomotor activity in ip dosed CD1 mouse in peak hour; format: functional
Mus musculus [27] = assay: Locomotor activity in CD1 mouse assessed as stimulation at 10 mg/kg, ip after 3 hrs relative to control; format: functional; conditions: route intraperitoneal
Mus musculus [28] = assay: Activity in CD1 mouse assessed as hind limb splay at 100 mg/kg, ip after 4 hrs; format: functional, organism-based; set-up: dose 100 mg/kg; conditions: Hindlimb
Mus musculus [29] = assay: Activity in CD1 mouse assessed as convulsions at 100 mg/kg, ip after 4 hrs; format: functional, organism-based; set-up: dose 100 mg/kg
Mus musculus [30] = assay: Locomotor activity in CD1 mouse assessed as stimulation at 1 mg/kg, ip after 1 hr relative to control; format: functional; conditions: route intraperitoneal
[31] = target: Sodium-dependent dopamine transporter (Homo sapiens, UniProt Q01959); assay: Displacement of [3H]WIN-35428 from DAT
Sodium-dependent dopamine transporter, sequence (Q01959 whole entry): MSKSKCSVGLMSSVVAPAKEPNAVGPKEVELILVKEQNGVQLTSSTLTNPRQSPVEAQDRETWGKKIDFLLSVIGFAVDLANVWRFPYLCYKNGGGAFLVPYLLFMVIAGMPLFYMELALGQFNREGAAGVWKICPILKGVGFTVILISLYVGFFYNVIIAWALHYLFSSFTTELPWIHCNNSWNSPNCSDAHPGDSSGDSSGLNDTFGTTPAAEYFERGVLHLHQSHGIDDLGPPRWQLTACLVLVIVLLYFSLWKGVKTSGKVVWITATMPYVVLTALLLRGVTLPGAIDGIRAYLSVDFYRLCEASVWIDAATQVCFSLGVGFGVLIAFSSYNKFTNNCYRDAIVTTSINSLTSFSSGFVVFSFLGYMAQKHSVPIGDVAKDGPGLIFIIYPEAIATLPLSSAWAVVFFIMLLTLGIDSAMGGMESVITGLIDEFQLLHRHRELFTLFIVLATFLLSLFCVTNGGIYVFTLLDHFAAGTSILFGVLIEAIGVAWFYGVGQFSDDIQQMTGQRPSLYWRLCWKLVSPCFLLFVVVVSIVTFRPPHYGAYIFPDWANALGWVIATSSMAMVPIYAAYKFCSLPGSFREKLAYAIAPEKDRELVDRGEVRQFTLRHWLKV

Rattus norvegicus [32] = assay: Drug discrimination effect in CD Albino rat assessed as percent of rat choosing cocaine lever at 10 mg/kg, ip; format: functional; conditions: route intraperitoneal

COC(=O)[C@H]1C2CCC(C[C@@H]1c1ccc(I)cc1)N2C (some centres undefined) was tested, and the Activity (Rattus norvegicus [1]) was 80%, the Activity (Mus musculus [2]) was “Active” and the Activity (Mus musculus [3]) was 41%. For the same molecule, the Activity (Mus musculus [4]) was 7%, the Activity (Rattus norvegicus [5]) was 0% and the Activity (Mus musculus [6]) was 49%. The Activity (Mus musculus [7]) was 40%, the Activity (Mus musculus [8]) was 268% and the Activity (Mus musculus [9]) was “Active”. The Ratio (Mus musculus [10]) was 0.1, the Activity (Mus musculus [11]) was 19% and the Activity (Mus musculus [12]) was 17%. For the same molecule, the Activity (Mus musculus [13]) was “Active”, the Activity (Mus musculus [14]) was 150% and the Activity (Mus musculus [15]) was 99%. For the same molecule, the Activity (Mus musculus [16]) was 13%, the Activity (Mus musculus [17]) was 44% and the Activity (Mus musculus [18]) was “Active”. For the same molecule, the IC50 [19] was 760 nM, the Ki [19] was 458 nM and the Activity (Mus musculus [20]) was 255%. The Activity (Mus musculus [21]) was 96%, the Activity (Mus musculus [22]) was 17% and the Activity (Mus musculus [23]) was “Active”. It also gave an ED50 (Rattus norvegicus [24]) of 13.5 mg/kg, an IC50 [25] of 66.3 nM and a Ki [25] of 6 nM. For the same molecule, the ED50 (Mus musculus [26]) was 9.9 mg/kg, the Activity (Mus musculus [27]) was 85% and the Activity (Mus musculus [28]) was “Active”. For the same molecule, the Activity (Mus musculus [29]) was “Active”, the Activity (Mus musculus [30]) was 0% and the IC50 [31] was 22.7 nM. For the same molecule, the Activity (Rattus norvegicus [32]) was 14%.

Reference: ChEMBL document CHEMBL1149262, “Monoamine transporter binding, locomotor activity, and drug discrimination properties of 3-(4-substituted-phenyl)tropane-2-carboxylic acid methyl ester isomers” (J Med Chem, 2004)
